The test system of one data set is serum testosterone. The experiment in a line: Testosterone-lowering effect on infusion by minipumps. The settings on record: male rats, subcutaneous infusion by minipumps for 7 days. Format: in vivo, rat. The procedure:
(§1) The peptides according to the invention have been tested for an atrophic effect on androgen-dependent organs and for an LH- and testosterone-lowering effect in serum and blood of male rats by continuous infusion (MINIPUMPS). The ovulation-inhibiting effect has been tested on female rats. The histamine release was checked using rat peritoneal mast cells.
The testosterone-lowering effect was tested on male rats during subcutaneous infusion for 7 days. The biological effect on androgen-dependent organs and serum testosterone was recorded. The test compounds were administered by subcutaneous infusion using minipumps at a rate of […] for 7 days. The test compounds were dissolved in sterile 5 % strength mannitol solution. The minipumps were implanted subcutaneously in the region of the back under anesthesia and aseptic conditions.
Serum testosterone was extracted with diethyl ether and determined by a specific RIA.
Testosterone-lowering effect on infusion by minipumps

For data set [1], the system named is immature female rats (LHRH-induced ovulation). The experiment in a line: Rat antiovulation assay. The settings on record: PMSG-pretreated immature female rats, phenobarbital; 800 ng LHRH s.c. 2 hours after antagonist. Format: in vivo. The procedure: as §1
The ovulation-inhibiting effect was tested in immature female rats which had been pretreated with PMSG (pregnant mare serum gonadotropin) in order to induce follicle maturation, Spontaneous ovulation was prevented by barbiturate (phenobarbital). A test dose of 800 ng of LHRH was injected subcutaneously 2 hours after the antagonists. The test substances were injected subcutaneously dissolved in 5% strength mannitol solution. The next day the Fallopian tubes were dissected out and stained with Patent Blue, and the tubular oocytes were counted under a microscope. The dose for an ovulation-inhibiting effect (ED 100) was determined for all the antagonists.

The subject of data set [2] is rat peritoneal mast cells. The experiment in a line: Histamine release from peritoneal mast cells. The class given is cell-based, Wistar rats. The settings on record: 37° C., 30 minutes. The procedure:
as §1
Wistar rats were sacrificed by decapitation. 50 ml of a 0.9% strength NaCl solution were injected into the abdominal cavity and, after gentle massage, the abdominal wall was opened. The fluid, which contains the peritoneal cells, was aspirated using a Pasteur pipette and then centrifuged. The pelleted cells were resuspended and, after testing viability, diluted to 10^6 mast cells/ml.
150 μl of the dissolved gonadoliberin antagonist were added to a suspension of 10^5 mast cells in 150 μl of 0.9 % strength NaCl solution. After incubation at 37° C. for 30 minutes, the test tubes were centrifuged and the supernatant was removed. The LHRH antagonist Ac-D-Nal-D-p-Cl-D-Phe-D-Trp-Ser-Tyr-D-Ser(Rha)-Leu-Arg-Pro-Azagly-NH2, known to be a compound which induces histamine release by mast cells, was used as comparison substance. To determine the total histamine release (100%), the mast cell suspensions were rapidly boiled over a Bunsen burner.
A modified form of the methods described by Skofitsch et al. (J. Chromatography, 226, 53-59, 1981) and Siraganian and Hook (in Manual of Clinical Laboratory Immunology; eds: Rose et al. American Society of Microbiology, Washington D.C., pages 675, 1986) was used. Briefly summarized, 100 μl of a 1N NaOH and 100 μl of phthalaldehyde were added to 250 μl of supernatant and shaken vigorously. After a reaction time of 2 minutes, the fluorophore was converted into a more strongly fluorescent and stable product by acidification with 50 μl of 3N HCl. 10 μl of the supernatant were injected into the Chromspher C8 column (Chrompak FRW) of the HPLC system. This system comprises an SP 8100 chromatograph (Spectra Physics) and an SP 4270 integrator (Spectra Physics) and an LS-1 fluorescence detector (Perkin Elmer). The fluorescence was recorded at the wavelengths of 360 nm excitation and 450 nm emission.
Histamine release from peritoneal mast cells (μl/ml)

The next data set concerns histamine secretion. The settings on record: A. Phillips et al., Life Sci. 41 (1987); cited from earlier work.

On to “Ac-D-Nal-D-p-Cl-Phe-D-Pal-Ser-Tyr-D-Ser(Rha)-Leu-Ser(Rha)-Pro-D-Ala-NH2 [Example 5]”, for which the “Testosterone-lowering effect on infusion by minipumps: Dose per day” value (from here on “Testosterone-lowering effect … per day”) in the data set on serum testosterone was determined as 60 μg/24 h/rat. Further, the “Ovulation-inhibiting dose (ED 100)” value in data set [1] is 64 ng per rat s.c. In addition, the “Histamine release, percentage relative to total histamine release on boiling” value in data set [2] (0.01 (μl/ml) antagonist) is listed as 1.9%; in data set [2] (0.1 (μl/ml) antagonist), 2.4%; in data set [2] (1 (μl/ml) antagonist), 0.9%; in data set [2] (10 (μl/ml) antagonist) it was 0.3%; in data set [2] (100 (μl/ml) antagonist) it was 3.8%.

As for “Ac-D-Nal-D-p-Cl-Phe-D-Pal-Ser-Tyr-D-Ser(Rha)-Leu-Ser(Fuc)-Pro-Azagly-NH2 [Example 4]”, the “Testosterone-lowering effect … per day” value with serum testosterone turned out to be 60 μg/24 h/rat. Also, the “Ovulation-inhibiting dose (ED 100)” value in data set [1] is listed as 64 ng per rat s.c.

On to “Ac-D-Nal-D-p-Cl-Phe-D-Trp-Ser-Tyr-D-Ser(Rha)-Leu-Ser(Xyl)-Pro-Azagly-NH2 [Example 3]”, for which the “Testosterone-lowering effect … per day” value in the data set with serum testosterone was 120 μg/24 h/rat. Moreover, the “Ovulation-inhibiting dose (ED 100)” value in data set [1] worked out at 512 ng per rat s.c.

As for “Ac-D-Nal-D-p-Cl-D-Phe-D-Trp-Ser-Tyr-D-Ser(Rha)-Leu-Arg-Pro-Azagly-NH2 [Comparison substance, reference compound]”, the “Histamine release, percentage relative to total histamine release on boiling” value came to 2.6% in data set [2] (0.01 (μl/ml) antagonist); 2.1% in data set [2] (0.1 (μl/ml) antagonist); 15.3% in data set [2] (1 (μl/ml) antagonist); 92.4% in data set [2] (10 (μl/ml) antagonist); 107.6% in data set [2] (100 (μl/ml) antagonist).

For the substance “Ac-D-NaI-D-p-Cl-Phe-D-Trp-Ser-Tyr-D-Ser(Rha)-Leu-Ser(Rha)-pro-Azagly-NH2 [Example 1]”, the “Testosterone-lowering effect … per day” value in the data set with serum testosterone is 120 μg/24 h/rat. Also, in data set [1], the “Ovulation-inhibiting dose (ED 100)” value is 120 ng per rat s.c. For the same substance, the “Histamine release, percentage relative to total histamine release on boiling” value in data set [2] (0.01 (μl/ml) antagonist) is listed as 0.33%; in data set [2] (0.1 (μl/ml) antagonist), 2.82%; in data set [2] (1 (μl/ml) antagonist), -2.16%; in data set [2] (10 (μl/ml) antagonist), -5.37%; in data set [2] (100 (μl/ml) antagonist) it was -8.61%.

As for Nal-Glu, the histamine secretion result in the data set with histamine secretion is reported as “greatly reduced”.

Consider “Ac-D-Nal-D-p-Cl-Phe-D-Pal-Ser-Tyr-D-Ser(Rha)-Leu-Ser (Rha)-Pro-Azagly-NH2 [Example 2]”, for which, in the data set with serum testosterone, the “Testosterone-lowering effect … per day” value is recorded as 120 μg/24 h/rat. In data set [1], the “Ovulation-inhibiting dose (ED 100)” value is 256 ng per rat s.c. For the same substance, the “Histamine release, percentage relative to total histamine release on boiling” value in data set [2] (0.01 (μl/ml) antagonist) was 2.5%; in data set [2] (0.1 (μl/ml) antagonist) it was 4.6%; in data set [2] (1 (μl/ml) antagonist), 3.7%; in data set [2] (10 (μl/ml) antagonist), 0.9%; in data set [2] (100 (μl/ml) antagonist), 0.0%.

Values taken from patent publication US5434138A, “Gonadoliberin antagonists” (Hoechst Aktiengesellschaft, priority 1990, dated 1995).
